# Experimental data taken from patent US20260284166A1, “NOVEL TUMOR ANTIGENS FOR MELANOMA AND USES THEREOF” (UNIVERSITÉ DE MONTRÉAL, priority 2023, published 2026).
# Entries after “also recorded” stand apart in the source; their conditions may differ.
# Test system: CD8+ T cells from healthy donor PBMCs
# Assay: Functional expansion of specific T cells (FEST) assay
# Assay type: cell-based, human
# Settings: in vitro stimulation of healthy donor T cells with 1 μg/mL peptide, harvested day 20; TCR Vβ CDR3 sequencing of CD8+ cells
# Excerpt: aeTSA selection for Immunogenicity assay. Melanoma aeTSAs to be tested in T cell-based immunogenicity assays were selected based on the following criteria: 1) complete loss of expression (RPHM) on-therapy in at least one responder from the Riaz et al.^8 cohort capable to present the respective aeTSAs (at least one HLA allele with rank elution <2% in NetMHCpan4.1b^5), 2) elevated mean expression in TCGA-SKCM, 3) the HLA allotype presenting the aeTSA (HLA-A*02:01 or HLA-B*68:01 shared by the melanoma samples and PBMCs donors), 4) the aeTSA biotype (25% canonical, 75% non-canonical), 5) novel MAP status.
# T cells were cultured as previously described^9, with minor modifications. Briefly, on day 0, thawed PBMCs from D36 (Miltenyi Biotec) were T cell-enriched using the Human Pan T cell isolation kit (Miltenyi Biotec). T cells were resuspended at 2×10^6/mL in AIM V media supplemented with 50 μg/mL gentamicin (ThermoFisher Scientific) and 1% HEPES. The T cell-negative fraction was irradiated at 30 Gγ, washed, and resuspended at 2×10^6/mL in AIM V media supplemented with 50 μg/mL gentamicin and 1% HEPES. 2.5 ml per well of both T cells and irradiated T cell-depleted cells were added to a 12-well plate, along with each peptide (GLS Biochem) (1 μg/mL final concentration) or without peptide. Cells were cultured for 10 days at 37° C., 5% CO2. On day 3 and 7, half the culture media was replaced with fresh culture media containing 100 IU/mL IL-2, 50 ng/mL IL-7, and 50 ng/mL IL-15 (day 3) and 200 IU/mL IL-2, 50 ng/mL IL-7, and 50 ng/mL IL-15 (day 7). On day 10, thawed PBMCs from the same donor were used to generate a new batch of T cell-depleted cells. These cells were irradiated at 30 Gγ and loaded with […] of relevant peptide or without peptide during 2 h at 37° C. These cells were washed and added to cultures at a 1:1 T cell:non-T cell ratio. […] On day 20, cells were harvested to perform FEST assays.
# For FEST assays, CD8^+ cells were further isolated using the Human CD8^+ T Cell Isolation Kit (Miltenyi Biotec). […]
row,Sequence,Amino acid sequences of the CDR3 of the TCRβ chain of the clonotypes expanded
1,GVDDLVFRR [SEQ ID NO: 64],CASSPDPEGGEQYF; also recorded: CASSLQGHGYTF; also recorded: CASNVARTGGDISGDYEQYF; also recorded: CASSLGLAGSYEQYF; also recorded: CASSDSSYNSPLHF
2,HTLPALSRR [SEQ ID NO: 66],CASSFQGLNTEAFF (SEQ ID NO: 1103); also recorded: CASSPGQGNEKLFF (SEQ ID NO: 1104); also recorded: CASSLGSGYEQYF (SEQ ID NO: 1105); also recorded: CASSLGLYNEQFF (SEQ ID NO: 1106); also recorded: CASSPGTDYNEQFF (SEQ ID NO: 1107); also recorded: CATRPGAIRGYTF (SEQ ID NO: 1108); also recorded: CASSLIGGADTEAFF (SEQ ID NO: 1109)
3,AAAGVSSTK [SEQ ID NO: 73],CASSPTNTYEQYF; also recorded: CASHPAGADMNTEAFF; also recorded: CASSLAGRETQYF; also recorded: CASSVWGEPYNEQFF; also recorded: CASSRTDSYEQYF; also recorded: CASSLQGANGYTF
